From US4705784A, “Cephem compounds” (Sumitomo Pharmaceuticals Company, Limited, priority 1983, dated 1987)
In brackets after ≈: the same amount, converted by molar mass.

Experiments:
[1] = test system: Staphylococcus epidermidis; experiment: Antimicrobial activity test, Staphylococcus epidermidis; format: cell-based
Escherichia coli = experiment: Antimicrobial activity test, Escherichia coli; format: cell-based
Proteus mirabilis = experiment: Antimicrobial activity test, Proteus mirabilis; format: cell-based
Serratia marcescens = experiment: Antimicrobial activity test, Serratia marcescens; format: cell-based
Enterobacter aerogenes = experiment: Antimicrobial activity test, Enterobacter aerogenes; format: cell-based; details: Klebsiella aerogenes
[2] = test system: β-lactamase producing resistant bacteria; details: cephem antibiotics in use for oral administration; cited from earlier work
bacteria = details: cephem antibiotics in use for oral administration; cited from earlier work
[3] = Oral dosage absorbability: urinary excretion rate after oral administration, mouse; format: in vivo; details: urine, dose: 50 mg/kg
Procedure: (§1) Results of oral dosage absorbability tests
(§2) Urinary excretion rate after oral
(§3) Test compd. administration (dose: 50 mg/kg)

[4] = Oral dosage absorbability: urinary excretion rate after oral administration, rat; format: in vivo; details: urine, dose: 50 mg/kg
Procedure: as §1, §2, §3

For `NC(=O)OCC1=C(C(=O)O)N2C(=O)C(NC(=O)/C(=N\O)c3cscn3)[C@H]2SC1` (some centres unmarked) [Example 16, 7-[(Z)-2-hydroxyimino-2-(thiazol-4-yl)acetamido]-3-carbamoyloxymethyl-3-cephem-4-carboxylic acid], the MIC [1] was 1.56 mg/L (≈ 3.65 µM), the MIC (Escherichia coli) was 0.39 mg/L (≈ 0.912 µM) and the MIC (Proteus mirabilis) was 0.78 mg/L (≈ 1.82 µM). For the same compound, the MIC (Serratia marcescens) was 3.13 mg/L (≈ 7.32 µM) and the MIC (Enterobacter aerogenes) was 1.56 mg/L (≈ 3.65 µM).
For `N[C@@H](C(=O)N[C@@H]1C(=O)N2C(C(=O)O)=C(CSc3c[nH]nn3)CS[C@H]12)c1ccc(O)cc1` [cefatrizine], the “effect on β-lactamase producing resistant bacteria” value (from here on “effect”) [2] is given as “ineffective” and the “antimicrobial activity and width of antimicrobial spectrum” value (shortened to “antimicrobial activity and width”) (bacteria) is given as “slightly inferior”.
For `CCO/N=C(\C(=O)NC1C(=O)N2C(C(=O)O)=C(COC(N)=O)CSC12)c1cscn1` (centres unmarked) [Example 10], the MIC [1] was 3.13 mg/L (≈ 6.87 µM), the MIC (Escherichia coli) was 0.2 mg/L (≈ 0.439 µM) and the MIC (Proteus mirabilis) was 0.05 mg/L (≈ 0.11 µM). It also gave an MIC (Serratia marcescens) of 3.13 mg/L (≈ 6.87 µM) and an MIC (Enterobacter aerogenes) of 0.78 mg/L (≈ 1.71 µM).
`CO/N=C(\C(=O)NC1C(=O)N2C(C(=O)O)=C(COC(N)=O)CS[C@H]12)c1cscn1` (some centres unmarked) [Example 1, 7-[(Z)-2-Methoxyimino-2-(thiazol-4-yl)acetamido]-3-carbamoyloxymethyl-3-cephem-4-carboxylic acid] gave an MIC [1] of 1.56 mg/L (≈ 3.53 µM), an MIC (Escherichia coli) of 0.05 mg/L (≈ 0.113 µM) and an MIC (Proteus mirabilis) of no more than 0.013 mg/L. It also gave an MIC (Serratia marcescens) of 1.56 mg/L (≈ 3.53 µM) and an MIC (Enterobacter aerogenes) of 0.39 mg/L (≈ 0.883 µM).
`CO/N=C(\C(=O)NC1C(=O)N2C(C(=O)OCOC(=O)C(C)(C)C)=C(COC(N)=O)CS[C@H]12)c1cscn1` (some centres unmarked) [Example 5, Pivaloyloxymethyl 7-[(Z)-2-methoxyimino-2-(thiazol-4-yl)acetamido]-3-carbamoyloxymethyl-3-cephem-4-carboxylate] showed a dose excreted [3] of 64% and a dose excreted [4] of 30%.
In the case of `CC1=C(C(=O)O)N2C(=O)[C@@H](NC(=O)[C@H](N)c3ccccc3)[C@H]2SC1` [cephalexin], the “effect” value [2] is given as “ineffective” and the “antimicrobial activity and width” value (bacteria) is given as “slightly inferior”.
For `N[C@@H](C(=O)N[C@@H]1C(=O)N2C(C(=O)O)=C(Cl)CS[C@H]12)c1ccccc1` [cefaclor], the “effect” value [2] is given as “ineffective” and the “antimicrobial activity and width” value (bacteria) is given as “slightly inferior”.
